From BindingDB's records for patent US10618914 (University of Pittsburgh, 2020)

Target: T1, Signal transducer and activator of transcription 1-alpha/beta (Homo sapiens, UniProt P42224)
T1 sequence (P42224 whole entry): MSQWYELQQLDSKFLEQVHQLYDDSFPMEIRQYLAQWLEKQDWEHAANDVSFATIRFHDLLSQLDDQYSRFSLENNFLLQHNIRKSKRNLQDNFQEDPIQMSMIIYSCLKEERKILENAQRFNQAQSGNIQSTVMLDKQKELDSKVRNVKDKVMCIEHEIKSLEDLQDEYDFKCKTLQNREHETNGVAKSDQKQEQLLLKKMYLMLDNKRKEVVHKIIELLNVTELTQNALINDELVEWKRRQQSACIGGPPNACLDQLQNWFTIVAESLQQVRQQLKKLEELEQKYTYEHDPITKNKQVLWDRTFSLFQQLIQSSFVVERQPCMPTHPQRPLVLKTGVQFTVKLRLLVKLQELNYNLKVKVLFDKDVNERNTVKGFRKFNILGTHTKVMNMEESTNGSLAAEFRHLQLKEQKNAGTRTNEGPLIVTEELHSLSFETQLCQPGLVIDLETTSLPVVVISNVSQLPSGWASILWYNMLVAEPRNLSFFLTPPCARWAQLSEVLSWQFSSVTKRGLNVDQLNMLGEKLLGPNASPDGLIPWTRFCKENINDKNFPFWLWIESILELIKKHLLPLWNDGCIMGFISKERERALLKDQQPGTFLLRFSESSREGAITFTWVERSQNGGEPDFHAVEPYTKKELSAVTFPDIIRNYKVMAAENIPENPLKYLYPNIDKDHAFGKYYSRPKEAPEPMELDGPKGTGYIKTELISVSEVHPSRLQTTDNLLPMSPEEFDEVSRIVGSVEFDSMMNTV
Assay: Bioassay Evaluation
Description: Compound samples (in 3-5 mg quantities) were evaluated in a variety of assays.

SMILES	IC50 [µM]
CC1(C)Sc2nnc(-c3[nH]nc4c3CCC4)n2N=C1c1ccc(Cl)c(Cl)c1 [US10618914, Compound 32]	> 50
CC1Sc2nnc(-c3[nH]nc4c3CCC4)n2N=C1c1ccc(Cl)c(Cl)c1 (configuration not stated) [US10618914, Compound 19]	> 50
